Source: patent US10221163B2 (priority 2015, dated 2019)
pIC50: −log10 of the molar value. Read-outs that look alike come from different tables or passages of the source.

Experiments:
NDM-1 = NDM-1 (Klebsiella pneumoniae, UniProt C7C422); assay: biochemical; format: biochemical; settings: fluorescence assay, CCF2-FA substrate, 1 pM enzyme, 2 hours at 25° C.; read-out: NDM-1 IC50
Outline: (§1)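 Enzyme activity was measured by fluorescence using CCF2-FA, a cephalosporin-linked 7-hydroxycoumarin/fluorescein substrate, with inhibitor, metallo-β-lactamase and substrate incubated together for 2 hours at 25° C. IC50 came from a 4-parameter fit of inhibition versus log inhibitor concentration.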

IMP-1 = IMP-1 (Serratia marcescens, UniProt P52699); assay: biochemical; format: biochemical; settings: fluorescence assay, CCF2-FA substrate, 2 pM enzyme, 2 hours at 25° C.; read-out: IMP-1 IC50
IMP-1, sequence (P52699 whole entry, looked up, species assumed): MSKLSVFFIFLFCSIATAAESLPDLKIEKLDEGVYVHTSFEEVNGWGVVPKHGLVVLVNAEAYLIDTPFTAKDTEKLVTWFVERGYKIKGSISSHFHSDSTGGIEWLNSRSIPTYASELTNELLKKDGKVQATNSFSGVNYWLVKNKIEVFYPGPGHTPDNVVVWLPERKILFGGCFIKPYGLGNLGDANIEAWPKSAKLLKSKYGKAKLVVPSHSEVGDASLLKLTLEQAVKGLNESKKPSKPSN
Outline: as §1

[1] = tested on: Serratia marcescens expressing IMP-1 (CL5741); format: cell-based; settings: IMP-1 strain CL5741, with imipenem 1 μg/ml, 95% inhibition of growth
Outline: (§2)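 Growth by absorbance after 22–24 h at 35°C defined the read-out, with imipenem fixed at 1 μg/ml alongside compound. Inocula came from overnight blood-agar colonies at 35°C, resuspended in saline and diluted 1:100 in 1.1×CAMHB.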

[2] = tested on: Escherichia coli expressing NDM-1 (CLB30005, CLB30016); format: cell-based; settings: NDM-1 strain, with imipenem 1 μg/ml, 95% inhibition of growth
Outline: as §2

[3] = tested on: Klebsiella pneumoniae expressing VIM-1 (IHMA599644); format: cell-based; settings: VIM-1 strain IHMA599644, with imipenem 1 μg/ml, 95% inhibition of growth
Outline: as §2

[4] = tested on: Pseudomonas aeruginosa efflux− (MB9799), IMP-1; format: cell-based; settings: concentration restoring susceptibility to imipenem at 2 μg/mL in the presence of a class A, C, D serine β-lactamase inhibitor closely related to relebactam
Outline: (§3)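 PAO1 pair, broth microdilution; fixed β-lactam (imipenem/ceftazidime) at ~CLSI breakpoint + fixed class A/C BLI for AmpC; serial MBLi titration; endpoint = MBLi conc. restoring susceptibility; MB9798:MB9799 ratio = efflux liability.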

[5] = tested on: Pseudomonas aeruginosa efflux+ (MB9798), IMP-1; format: cell-based; settings: concentration restoring susceptibility to imipenem at 2 μg/mL in the presence of a class A, C, D serine β-lactamase inhibitor closely related to relebactam
Outline: as §3

VIM-1 = VIM-1 (Pseudomonas aeruginosa (strain ATCC 15692 / DSM 22644 / CIP 104116 / JCM 14847 / LMG 12228 / 1C / PRS 101 / PAO1), UniProt A0A0F7KYQ8); assay: biochemical; settings: CCF2-FA substrate, 30 pM enzyme, 2 hours at 25° C.
Outline: as §1

[6] = tested on: Pseudomonas aeruginosa MB9798 vs MB9799; settings: ratio MITC95 PA_9798/MITC95 PA_9799
Outline: as §3

[7] = fluorescence assay, read-out: VIM-1 IC50

NDM-1, sequence (C7C422 whole entry, looked up, species assumed): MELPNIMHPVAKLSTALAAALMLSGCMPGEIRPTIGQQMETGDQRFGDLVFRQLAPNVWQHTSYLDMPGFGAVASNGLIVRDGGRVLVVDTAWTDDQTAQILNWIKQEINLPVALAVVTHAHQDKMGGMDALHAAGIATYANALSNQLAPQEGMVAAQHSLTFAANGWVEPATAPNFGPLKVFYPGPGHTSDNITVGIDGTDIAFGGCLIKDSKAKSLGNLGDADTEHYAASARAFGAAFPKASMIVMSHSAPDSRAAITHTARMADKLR

Nc1ncc(-c2ccc(S(=O)(=O)N[C@@H]3CNC[C@@H]3N)c(S(N)(=O)=O)c2-c2nn[nH]n2)s1 [Example 321, N^1-((3R,4S)-4-aminopyrrolidin-3-yl)-4-(2-aminothiazol-5-yl)-3-(2H -tetrazol-5-yl)benzene-1,2-disulfonamide]
pIC50 (NDM-1): 9.42
pIC50 (IMP-1): 8.90
Serratia marcescens MITC95 [1]: 1.563 µM
Escherichia coli MITC95 [2]: 0.7813 µM
Klebsiella pneumoniae MITC95 [3]: 3.125 µM
P. aeruginosa expressing IMP-1, efflux − (MB9799) MITC95 [4]: 0.7813 µM
P. aeruginosa expressing IMP-1, efflux + (MB9798) MITC95 [5]: 1.563 µM
pIC50 (VIM-1; VIM-1 IC50, fluorescence assay): 9.02
Efflux ratio [6]: 2.00

N[C@H](CO)c1nc2c(-c3ccc(S(=O)(=O)N[C@H]4CNC[C@H]4N)c(S(N)(=O)=O)c3-c3nn[nH]n3)cccc2[nH]1 [Example 323, 4-(2-((S)-1-amino-2-hydroxyethyl)-1H-benzo[d]imidazol-4-yl)-N1-((3S,4R)-4-aminopyrrolidin-3-yl)-3-(2H-tetrazol-5-yl)benzene-1,2-disulfonamide]
pIC50 (NDM-1): 9.66
pIC50 (IMP-1): 8.47
Serratia marcescens MITC95 [1]: 3.125 µM
Escherichia coli MITC95 [2]: 1.563 µM
Klebsiella pneumoniae MITC95 [3]: 3.125 µM
P. aeruginosa expressing IMP-1, efflux − (MB9799) MITC95 [4]: 1.563 µM
P. aeruginosa expressing IMP-1, efflux + (MB9798) MITC95 [5]: 1.563 µM
pIC50 (VIM-1; VIM-1 IC50, fluorescence assay): 9.49
Efflux ratio [6]: 1.00

Nc1ccc2cccc(-c3ccc(S(=O)(=O)N[C@H]4CNC[C@H]4N)c(S(N)(=O)=O)c3-c3nn[nH]n3)c2n1 [Example 324, N1-((3S,4R)-4-aminopyrrolidin-3-yl)-4-(2-aminoquinolin-8-yl)-3-(1H-tetrazol-5-yl)benzene-1,2-disulfonamide]
pIC50 (NDM-1): 10.41
pIC50 (IMP-1): 9.67
Serratia marcescens MITC95 [1]: 0.7813 µM
Escherichia coli MITC95 [2]: 1.563 µM
Klebsiella pneumoniae MITC95 [3]: 1.563 µM
P. aeruginosa expressing IMP-1, efflux − (MB9799) MITC95 [4]: 0.7813 µM
P. aeruginosa expressing IMP-1, efflux + (MB9798) MITC95 [5]: 0.7813 µM
pIC50 (VIM-1; [7]): 9.89
Efflux ratio [6]: 1.00

Nc1ncc(-c2ccc(S(=O)(=O)N[C@H]3CNC[C@H]3N)c(S(N)(=O)=O)c2-c2nn[nH]n2)s1 [Example 325, N1-((3S,4R)-4-aminopyrrolidin-3-yl)-4-(2-aminothiazol-5-yl)-3-(2H-tetrazol-5-yl)benzene-1,2-disulfonamide]
pIC50 (NDM-1): 9.14
pIC50 (IMP-1): 8.91
Serratia marcescens MITC95 [1]: 1.563 µM
Escherichia coli MITC95 [2]: 0.7813 µM
Klebsiella pneumoniae MITC95 [3]: 3.125 µM
P. aeruginosa expressing IMP-1, efflux − (MB9799) MITC95 [4]: 0.7813 µM
P. aeruginosa expressing IMP-1, efflux + (MB9798) MITC95 [5]: 1.563 µM
pIC50 (VIM-1; VIM-1 IC50, fluorescence assay): 9.05
Efflux ratio [6]: 2.00

N[C@@H]1CNC[C@@H]1NS(=O)(=O)c1ccc(-c2cnc3cc[nH]c3c2)c(-c2nn[nH]n2)c1S(N)(=O)=O [Example 326, N1-((3S,4R)-4-aminopyrrolidin-3-yl)-4-(1H-pyrrolo[3,2-b]pyridin-6-yl)-3-(2H-tetrazol-5-yl)benzene-1,2-disulfonamide]
pIC50 (NDM-1): 10.30
pIC50 (IMP-1): 9.19
Serratia marcescens MITC95 [1]: 1.563 µM
Escherichia coli MITC95 [2]: 0.7813 µM
Klebsiella pneumoniae MITC95 [3]: 1.563 µM
P. aeruginosa expressing IMP-1, efflux − (MB9799) MITC95 [4]: 1.563 µM
P. aeruginosa expressing IMP-1, efflux + (MB9798) MITC95 [5]: 1.563 µM
pIC50 (VIM-1; VIM-1 IC50, fluorescence assay): 9.94
Efflux ratio [6]: 1.00

Nc1nc(-c2cccc(-c3ccc(S(=O)(=O)N[C@H]4CNC[C@H]4N)c(S(N)(=O)=O)c3-c3nn[nH]n3)c2)c[nH]1 [Example 327, 3′-(2-amino-1H-imidazol-4-yl)-N4-((3S,4R)-4-aminopyrrolidin-3-yl)-2-(2H-tetrazol-5-yl)-[1,1′-biphenyl]-3,4-disulfonamide]
pIC50 (NDM-1): 9.59
pIC50 (IMP-1): 8.85
Serratia marcescens MITC95 [1]: 3.125 µM
Escherichia coli MITC95 [2]: 3.125 µM
Klebsiella pneumoniae MITC95 [3]: 1.563 µM
P. aeruginosa expressing IMP-1, efflux − (MB9799) MITC95 [4]: 0.7813 µM
P. aeruginosa expressing IMP-1, efflux + (MB9798) MITC95 [5]: 1.563 µM
pIC50 (VIM-1; VIM-1 IC50, fluorescence assay): 9.19
Efflux ratio [6]: 2.00

N[C@@H]1CNC[C@@H]1NS(=O)(=O)c1ccc(-c2cccn3ccnc23)c(-c2nn[nH]n2)c1S(N)(=O)=O [Example 328, N1-((3S,4R)-4-aminopyrrolidin-3-yl)-4-(imidazo[1,2-a]pyridin-8-yl)-3-(2H-tetrazol-5-yl)benzene-1,2-disulfonamide]
pIC50 (NDM-1): 9.86
pIC50 (IMP-1): 9.47
Serratia marcescens MITC95 [1]: 1.563 µM
Escherichia coli MITC95 [2]: 0.7813 µM
Klebsiella pneumoniae MITC95 [3]: 3.125 µM
P. aeruginosa expressing IMP-1, efflux − (MB9799) MITC95 [4]: 1.563 µM
P. aeruginosa expressing IMP-1, efflux + (MB9798) MITC95 [5]: 1.563 µM
pIC50 (VIM-1; VIM-1 IC50, fluorescence assay): 9.78
Efflux ratio [6]: 1.00

Cc1ccc(-c2ccc(S(=O)(=O)NCCN)c(S(N)(=O)=O)c2-c2nn[nH]n2)c2nc(N)[nH]c12 [Example 329, 4-(2-Amino-7-methyl-1H-benzo[d]imidazol-4-yl)-N1-(2-aminoethyl)-3-(2H-tetrazol-5-yl)benzene-1,2-disulfonamide]
pIC50 (NDM-1): 10.82
pIC50 (IMP-1): 9.89
Serratia marcescens MITC95 [1]: 1.563 µM
Escherichia coli MITC95 [2]: 1.563 µM
Klebsiella pneumoniae MITC95 [3]: 1.563 µM
P. aeruginosa expressing IMP-1, efflux − (MB9799) MITC95 [4]: 0.7813 µM
P. aeruginosa expressing IMP-1, efflux + (MB9798) MITC95 [5]: 1.563 µM
pIC50 (VIM-1; [7]): 10.37
Efflux ratio [6]: 2.00

NCCNS(=O)(=O)c1ccc(-c2cccc3[nH]c([C@H](N)CO)nc23)c(-c2nn[nH]n2)c1S(N)(=O)=O [Example 330, (S)-4-(2-(1-amino-2-hydroxyethyl)-1H-benzo[d]imidazol-4-yl)-N1-(2-aminoethyl)-3-(2H-tetrazol-5-yl)benzene-1,2-disulfonamide]
pIC50 (NDM-1): 9.53
pIC50 (IMP-1): 8.56
Serratia marcescens MITC95 [1]: 1.563 µM
Escherichia coli MITC95 [2]: 3.125 µM
Klebsiella pneumoniae MITC95 [3]: 3.125 µM
P. aeruginosa expressing IMP-1, efflux − (MB9799) MITC95 [4]: 1.563 µM
P. aeruginosa expressing IMP-1, efflux + (MB9798) MITC95 [5]: 1.563 µM
pIC50 (VIM-1; VIM-1 IC50, fluorescence assay): 9.51
Efflux ratio [6]: 1.00

NCCNS(=O)(=O)c1ccc(-c2cccc3[nH]c([C@@H](N)CO)nc23)c(-c2nn[nH]n2)c1S(N)(=O)=O [Example 331, (R)-4-(2-(1-amino-2-hydroxyethyl)-1H-benzo[d]imidazol-4-yl)-N1-(2-aminoethyl)-3-(2H-tetrazol-5-yl)benzene-1,2-disulfonamide]
pIC50 (NDM-1): 9.64
pIC50 (IMP-1): 8.64
Serratia marcescens MITC95 [1]: 3.125 µM
Escherichia coli MITC95 [2]: 1.563 µM
Klebsiella pneumoniae MITC95 [3]: 3.125 µM
P. aeruginosa expressing IMP-1, efflux − (MB9799) MITC95 [4]: 1.563 µM
P. aeruginosa expressing IMP-1, efflux + (MB9798) MITC95 [5]: 1.563 µM
pIC50 (VIM-1; VIM-1 IC50, fluorescence assay): 9.74
Efflux ratio [6]: 1.00

NCCNS(=O)(=O)c1ccc(-c2cccc(C(=O)NC[C@@H](N)CO)c2N)c(-c2nn[nH]n2)c1S(N)(=O)=O [Example 332]
pIC50 (NDM-1): 9.18
pIC50 (IMP-1): 8.52
Serratia marcescens MITC95 [1]: 1.563 µM
Escherichia coli MITC95 [2]: 1.563 µM
Klebsiella pneumoniae MITC95 [3]: 3.125 µM
P. aeruginosa expressing IMP-1, efflux − (MB9799) MITC95 [4]: 1.563 µM
P. aeruginosa expressing IMP-1, efflux + (MB9798) MITC95 [5]: 1.563 µM
pIC50 (VIM-1; [7]): 9.64
Efflux ratio [6]: 1.00

NCCNS(=O)(=O)c1ccc(-c2cccc(C(=O)NC[C@H](N)CO)c2N)c(-c2nn[nH]n2)c1S(N)(=O)=O [Example 333, (S)-2-amino-N-(2-amino-3-hydroxypropyl)-4′-(N-(2-aminoethyl)sulfamoyl)-3′-sulfamoyl-2′-(2H-tetrazol-5-yl)-[1,1′-biphenyl]-3-carboxamide]
pIC50 (NDM-1): 9.00
pIC50 (IMP-1): 8.49
Serratia marcescens MITC95 [1]: 1.563 µM
Escherichia coli MITC95 [2]: 1.563 µM
Klebsiella pneumoniae MITC95 [3]: 3.125 µM
P. aeruginosa expressing IMP-1, efflux − (MB9799) MITC95 [4]: 1.563 µM
P. aeruginosa expressing IMP-1, efflux + (MB9798) MITC95 [5]: 1.563 µM
pIC50 (VIM-1; [7]): 9.33
Efflux ratio [6]: 1.00
